Assay results from ChEMBL document CHEMBL1139458, “Discovery of small-molecule inhibitors of the ATPase activity of human papillomavirus E1 helicase” (J Med Chem, 2004).

Biological target: T1, DNA helicase/primase complex protein (Herpes simplex virus (type 1 / strain 17), UniProt P10236)
T1 sequence (P10236 whole entry): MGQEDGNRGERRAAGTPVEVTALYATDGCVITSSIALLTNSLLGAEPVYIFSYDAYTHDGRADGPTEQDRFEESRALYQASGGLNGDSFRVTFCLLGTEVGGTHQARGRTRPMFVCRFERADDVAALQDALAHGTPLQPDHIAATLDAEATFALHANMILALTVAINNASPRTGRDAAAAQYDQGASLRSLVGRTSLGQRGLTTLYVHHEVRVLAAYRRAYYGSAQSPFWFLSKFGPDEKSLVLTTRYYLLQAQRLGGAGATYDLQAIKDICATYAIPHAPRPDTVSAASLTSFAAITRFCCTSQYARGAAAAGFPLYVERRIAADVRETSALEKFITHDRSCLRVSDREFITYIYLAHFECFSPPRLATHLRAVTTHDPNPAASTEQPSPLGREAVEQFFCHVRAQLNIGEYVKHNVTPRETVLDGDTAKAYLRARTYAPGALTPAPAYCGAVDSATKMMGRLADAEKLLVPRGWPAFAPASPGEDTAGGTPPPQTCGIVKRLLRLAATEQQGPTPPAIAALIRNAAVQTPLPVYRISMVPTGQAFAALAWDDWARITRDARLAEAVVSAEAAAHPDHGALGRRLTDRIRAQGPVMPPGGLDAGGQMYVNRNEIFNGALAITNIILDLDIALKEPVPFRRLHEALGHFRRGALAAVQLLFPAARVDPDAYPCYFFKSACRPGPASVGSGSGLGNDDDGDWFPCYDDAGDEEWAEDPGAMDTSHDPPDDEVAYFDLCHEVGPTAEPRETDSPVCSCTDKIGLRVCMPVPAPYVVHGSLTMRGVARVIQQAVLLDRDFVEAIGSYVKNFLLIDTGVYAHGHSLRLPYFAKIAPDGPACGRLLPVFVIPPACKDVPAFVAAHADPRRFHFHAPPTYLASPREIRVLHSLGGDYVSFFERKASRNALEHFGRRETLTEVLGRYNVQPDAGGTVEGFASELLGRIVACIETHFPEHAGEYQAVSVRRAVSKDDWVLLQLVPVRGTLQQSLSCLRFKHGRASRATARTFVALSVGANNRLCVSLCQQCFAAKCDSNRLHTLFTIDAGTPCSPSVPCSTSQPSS
Experiment: Inhibitory concentration against herpes simplex virus helicase primase 8 (HSV)

Question: For `O=C(O)CS(=O)(=O)c1ccc(-c2ccccc2)cc1`, which IC50 is on record?
Answer: The IC50 was > 80 µM.
